Laboratory results taken from ChEMBL document CHEMBL4507279, “Data for DCP probe BI-9627” (2021).

Assays:
[1] = test system: Tyrosine-protein kinase ABL1 (Homo sapiens), P00519 [F317I]; settings: Compound concentration 1000.0 nM
[2] = test system: Tyrosine-protein kinase ABL1 (Homo sapiens), P00519 [F317L]; settings: Compound concentration 1000.0 nM
[3] = target: Tyrosine-protein kinase ABL1 (Homo sapiens) (UniProt P00519); settings: Compound concentration 1000.0 nM
[4] = target: Activin receptor type-2B (Homo sapiens) (UniProt Q13705); settings: Compound concentration 1000.0 nM
Sequence of Activin receptor type-2B (Homo sapiens) (Q13705 whole entry): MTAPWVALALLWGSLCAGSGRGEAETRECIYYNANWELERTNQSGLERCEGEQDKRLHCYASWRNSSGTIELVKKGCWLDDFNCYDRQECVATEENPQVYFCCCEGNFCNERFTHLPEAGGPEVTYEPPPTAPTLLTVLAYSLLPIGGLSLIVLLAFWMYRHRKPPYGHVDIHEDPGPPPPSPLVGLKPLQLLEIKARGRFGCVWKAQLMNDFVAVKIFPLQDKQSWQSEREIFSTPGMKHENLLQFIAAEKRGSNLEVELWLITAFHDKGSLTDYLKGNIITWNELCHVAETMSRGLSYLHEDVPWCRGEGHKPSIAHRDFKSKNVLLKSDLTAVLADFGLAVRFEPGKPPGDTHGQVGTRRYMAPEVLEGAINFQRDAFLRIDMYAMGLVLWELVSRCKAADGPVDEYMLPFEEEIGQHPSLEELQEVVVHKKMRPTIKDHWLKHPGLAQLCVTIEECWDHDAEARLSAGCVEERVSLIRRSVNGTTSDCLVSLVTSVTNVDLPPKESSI

[5] = target: RAC-gamma serine/threonine-protein kinase (Homo sapiens) (UniProt Q9Y243); settings: Compound concentration 1000.0 nM
Sequence of RAC-gamma serine/threonine-protein kinase (Homo sapiens) (Q9Y243 whole entry): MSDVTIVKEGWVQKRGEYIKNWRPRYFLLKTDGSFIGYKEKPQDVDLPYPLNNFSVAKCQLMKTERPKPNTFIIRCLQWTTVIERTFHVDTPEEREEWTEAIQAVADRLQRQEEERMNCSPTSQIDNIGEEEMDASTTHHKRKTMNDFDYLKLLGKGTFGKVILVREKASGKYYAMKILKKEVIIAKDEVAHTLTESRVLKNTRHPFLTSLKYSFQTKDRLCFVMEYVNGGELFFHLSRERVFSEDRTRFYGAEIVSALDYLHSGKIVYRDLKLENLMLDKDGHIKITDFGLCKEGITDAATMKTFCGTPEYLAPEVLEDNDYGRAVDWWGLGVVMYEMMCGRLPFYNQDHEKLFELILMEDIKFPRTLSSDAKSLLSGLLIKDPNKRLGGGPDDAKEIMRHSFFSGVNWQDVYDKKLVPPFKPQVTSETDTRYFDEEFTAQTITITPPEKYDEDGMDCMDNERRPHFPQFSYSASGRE

[6] = target: NUAK family SNF1-like kinase 1 (Homo sapiens) (UniProt O60285); settings: Compound concentration 1000.0 nM
[7] = test system: Serine/threonine-protein kinase B-raf (Homo sapiens), P15056 [V600E]; settings: Compound concentration 1000.0 nM
Sequence of Serine/threonine-protein kinase B-raf (Homo sapiens), P15056 [V600E] (P15056 whole entry V600E): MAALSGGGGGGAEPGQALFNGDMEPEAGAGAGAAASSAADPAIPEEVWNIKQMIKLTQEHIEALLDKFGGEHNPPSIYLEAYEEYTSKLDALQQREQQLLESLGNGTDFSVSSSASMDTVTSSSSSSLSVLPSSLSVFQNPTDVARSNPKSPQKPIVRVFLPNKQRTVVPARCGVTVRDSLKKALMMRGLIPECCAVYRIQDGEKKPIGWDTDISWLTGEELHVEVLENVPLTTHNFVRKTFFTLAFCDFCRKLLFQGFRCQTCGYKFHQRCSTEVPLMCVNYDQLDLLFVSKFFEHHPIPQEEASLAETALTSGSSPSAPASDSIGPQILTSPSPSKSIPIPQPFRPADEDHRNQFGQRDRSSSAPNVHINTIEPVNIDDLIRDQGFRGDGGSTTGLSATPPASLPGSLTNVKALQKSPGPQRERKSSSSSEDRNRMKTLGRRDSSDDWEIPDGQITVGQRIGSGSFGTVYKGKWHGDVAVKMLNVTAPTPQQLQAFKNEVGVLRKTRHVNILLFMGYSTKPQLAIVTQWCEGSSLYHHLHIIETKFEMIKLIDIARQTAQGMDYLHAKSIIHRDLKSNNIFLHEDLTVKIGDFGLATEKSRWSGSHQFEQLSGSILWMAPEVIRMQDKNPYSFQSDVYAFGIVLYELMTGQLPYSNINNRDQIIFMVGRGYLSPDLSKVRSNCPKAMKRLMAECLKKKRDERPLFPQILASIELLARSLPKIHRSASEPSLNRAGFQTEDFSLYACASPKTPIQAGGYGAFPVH

[8] = target: Dual specificity protein kinase CLK1 (Homo sapiens) (UniProt P49759); settings: Compound concentration 1000.0 nM
[9] = target: Mitogen-activated protein kinase kinase kinase 12 (Homo sapiens) (UniProt Q12852); settings: Compound concentration 1000.0 nM
[10] = test system: Epidermal growth factor receptor (Homo sapiens), P00533 [UNDEFINED MUTATION]; settings: Compound concentration 1000.0 nM
[11] = test system: Epidermal growth factor receptor (Homo sapiens), P00533 [G719C]; settings: Compound concentration 1000.0 nM
[12] = target: Ephrin type-A receptor 5 (Homo sapiens) (UniProt P54756); settings: Compound concentration 1000.0 nM
[13] = target: Ephrin type-A receptor 6 (Homo sapiens) (UniProt Q9UF33); settings: Compound concentration 1000.0 nM
[14] = target: Mitogen-activated protein kinase 1 (Homo sapiens) (UniProt P28482); settings: Compound concentration 1000.0 nM
Sequence of Mitogen-activated protein kinase 1 (Homo sapiens) (P28482 whole entry): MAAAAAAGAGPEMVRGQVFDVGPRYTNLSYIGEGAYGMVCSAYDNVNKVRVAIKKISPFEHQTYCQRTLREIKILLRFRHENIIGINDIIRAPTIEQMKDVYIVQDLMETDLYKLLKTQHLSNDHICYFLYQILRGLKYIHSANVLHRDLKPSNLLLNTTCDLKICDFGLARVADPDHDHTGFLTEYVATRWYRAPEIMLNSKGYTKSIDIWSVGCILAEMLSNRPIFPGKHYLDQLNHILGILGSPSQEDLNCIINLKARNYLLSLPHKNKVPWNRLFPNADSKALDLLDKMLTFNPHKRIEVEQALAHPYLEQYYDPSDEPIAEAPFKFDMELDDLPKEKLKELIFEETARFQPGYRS

[15] = target: Fibroblast growth factor receptor 4 (Homo sapiens) (UniProt P22455); settings: Compound concentration 1000.0 nM
[16] = test system: Receptor-type tyrosine-protein kinase FLT3 (Homo sapiens), P36888 [R834Q]; settings: Compound concentration 1000.0 nM
[17] = target: Mitogen-activated protein kinase 10 (Homo sapiens) (UniProt P53779); settings: Compound concentration 1000.0 nM
Sequence of Mitogen-activated protein kinase 10 (Homo sapiens) (P53779 whole entry): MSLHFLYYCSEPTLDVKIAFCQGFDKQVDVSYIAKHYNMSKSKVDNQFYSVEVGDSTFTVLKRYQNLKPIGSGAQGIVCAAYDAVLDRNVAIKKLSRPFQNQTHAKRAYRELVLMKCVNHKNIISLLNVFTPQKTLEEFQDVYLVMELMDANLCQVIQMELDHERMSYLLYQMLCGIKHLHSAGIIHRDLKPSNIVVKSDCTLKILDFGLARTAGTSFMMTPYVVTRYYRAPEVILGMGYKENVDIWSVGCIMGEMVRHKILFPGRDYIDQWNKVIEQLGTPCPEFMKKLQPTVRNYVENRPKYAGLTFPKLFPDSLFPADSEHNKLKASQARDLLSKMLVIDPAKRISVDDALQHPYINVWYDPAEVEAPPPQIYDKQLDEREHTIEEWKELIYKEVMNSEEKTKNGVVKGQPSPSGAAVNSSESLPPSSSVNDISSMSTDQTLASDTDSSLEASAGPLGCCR

[18] = test system: Mast/stem cell growth factor receptor Kit (Homo sapiens), P10721 [D816V]; settings: Compound concentration 1000.0 nM
[19] = target: LIM domain kinase 2 (Homo sapiens) (UniProt P53671); settings: Compound concentration 1000.0 nM
[20] = target: Leukocyte tyrosine kinase receptor (Homo sapiens) (UniProt P29376); settings: Compound concentration 1000.0 nM
[21] = target: Mitogen-activated protein kinase kinase kinase kinase 4 (Homo sapiens) (UniProt O95819); settings: Compound concentration 1000.0 nM
[22] = target: Serine/threonine-protein kinase 24 (Homo sapiens) (UniProt Q9Y6E0); settings: Compound concentration 1000.0 nM
[23] = target: Myosin light chain kinase, smooth muscle (Homo sapiens) (UniProt Q15746); settings: Compound concentration 1000.0 nM
[24] = target: Serine/threonine-protein kinase PAK 6 (Homo sapiens) (UniProt Q9NQU5); settings: Compound concentration 1000.0 nM
[25] = target: Phosphatidylinositol 4-kinase beta (Homo sapiens) (UniProt Q9UBF8); settings: Compound concentration 1000.0 nM
[26] = target: cAMP-dependent protein kinase catalytic subunit PRKX (Homo sapiens) (UniProt P51817); settings: Compound concentration 1000.0 nM
[27] = target: Serine/threonine-protein kinase RIO2 (Homo sapiens) (UniProt Q9BVS4); settings: Compound concentration 1000.0 nM
[28] = target: Ribosomal protein S6 kinase alpha-4 (Homo sapiens) (UniProt O75676); settings: Compound concentration 1000.0 nM
Sequence of Ribosomal protein S6 kinase alpha-4 (Homo sapiens) (O75676 whole entry, looked up): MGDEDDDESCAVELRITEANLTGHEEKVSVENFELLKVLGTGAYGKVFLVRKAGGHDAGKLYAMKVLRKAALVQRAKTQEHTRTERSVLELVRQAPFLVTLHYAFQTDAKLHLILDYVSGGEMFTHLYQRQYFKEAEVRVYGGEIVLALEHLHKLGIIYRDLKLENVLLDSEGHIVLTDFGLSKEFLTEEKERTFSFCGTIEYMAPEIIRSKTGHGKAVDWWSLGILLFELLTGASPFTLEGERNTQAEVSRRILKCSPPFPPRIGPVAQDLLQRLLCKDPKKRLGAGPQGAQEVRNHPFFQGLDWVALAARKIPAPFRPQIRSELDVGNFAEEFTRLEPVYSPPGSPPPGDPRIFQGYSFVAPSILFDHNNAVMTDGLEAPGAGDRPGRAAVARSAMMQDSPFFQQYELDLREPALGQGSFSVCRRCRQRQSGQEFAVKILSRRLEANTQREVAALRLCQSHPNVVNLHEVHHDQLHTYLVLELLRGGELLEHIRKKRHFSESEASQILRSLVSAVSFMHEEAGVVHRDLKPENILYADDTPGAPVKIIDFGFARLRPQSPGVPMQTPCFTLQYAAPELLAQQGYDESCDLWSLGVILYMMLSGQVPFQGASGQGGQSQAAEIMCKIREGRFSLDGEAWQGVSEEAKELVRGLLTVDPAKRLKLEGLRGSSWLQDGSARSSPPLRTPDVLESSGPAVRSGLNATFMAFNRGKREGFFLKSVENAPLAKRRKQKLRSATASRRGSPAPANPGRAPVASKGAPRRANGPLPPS

[29] = target: Ribosomal protein S6 kinase alpha-4 (Homo sapiens) (UniProt O75676); settings: Compound concentration 1000.0 nM; remark: listed apart in the source
[30] = target: Ribosomal protein S6 kinase beta-1 (Homo sapiens) (UniProt P23443); settings: Compound concentration 1000.0 nM
[31] = target: Serine/threonine-protein kinase Sgk3 (Homo sapiens) (UniProt Q96BR1); settings: Compound concentration 1000.0 nM
Sequence of Serine/threonine-protein kinase Sgk3 (Homo sapiens) (Q96BR1 whole entry): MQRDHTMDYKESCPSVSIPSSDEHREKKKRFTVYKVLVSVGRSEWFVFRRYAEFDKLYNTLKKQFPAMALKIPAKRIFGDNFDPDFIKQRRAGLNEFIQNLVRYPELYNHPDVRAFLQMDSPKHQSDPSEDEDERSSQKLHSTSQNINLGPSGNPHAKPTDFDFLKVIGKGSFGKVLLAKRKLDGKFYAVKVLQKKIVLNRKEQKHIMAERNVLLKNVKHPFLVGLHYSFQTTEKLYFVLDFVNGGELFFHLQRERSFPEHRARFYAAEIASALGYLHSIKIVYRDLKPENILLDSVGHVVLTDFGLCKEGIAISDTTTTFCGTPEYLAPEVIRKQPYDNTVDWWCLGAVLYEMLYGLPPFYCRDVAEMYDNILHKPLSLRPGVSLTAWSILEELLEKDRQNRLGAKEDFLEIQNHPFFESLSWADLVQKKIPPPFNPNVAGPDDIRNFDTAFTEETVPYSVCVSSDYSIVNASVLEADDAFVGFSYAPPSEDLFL

[32] = target: Serine/threonine-protein kinase TAO3 (Homo sapiens) (UniProt Q9H2K8); settings: Compound concentration 1000.0 nM
[33] = target: Transient receptor potential cation channel subfamily M member 6 (Homo sapiens) (UniProt Q9BX84); settings: Compound concentration 1000.0 nM
[34] = target: Non-receptor tyrosine-protein kinase TYK2 (Homo sapiens) (UniProt P29597); settings: Compound concentration 1000.0 nM
[35] = target: Serine/threonine-protein kinase ULK2 (Homo sapiens) (UniProt Q8IYT8); settings: Compound concentration 1000.0 nM
Sequence of Serine/threonine-protein kinase ULK2 (Homo sapiens) (Q8IYT8 whole entry): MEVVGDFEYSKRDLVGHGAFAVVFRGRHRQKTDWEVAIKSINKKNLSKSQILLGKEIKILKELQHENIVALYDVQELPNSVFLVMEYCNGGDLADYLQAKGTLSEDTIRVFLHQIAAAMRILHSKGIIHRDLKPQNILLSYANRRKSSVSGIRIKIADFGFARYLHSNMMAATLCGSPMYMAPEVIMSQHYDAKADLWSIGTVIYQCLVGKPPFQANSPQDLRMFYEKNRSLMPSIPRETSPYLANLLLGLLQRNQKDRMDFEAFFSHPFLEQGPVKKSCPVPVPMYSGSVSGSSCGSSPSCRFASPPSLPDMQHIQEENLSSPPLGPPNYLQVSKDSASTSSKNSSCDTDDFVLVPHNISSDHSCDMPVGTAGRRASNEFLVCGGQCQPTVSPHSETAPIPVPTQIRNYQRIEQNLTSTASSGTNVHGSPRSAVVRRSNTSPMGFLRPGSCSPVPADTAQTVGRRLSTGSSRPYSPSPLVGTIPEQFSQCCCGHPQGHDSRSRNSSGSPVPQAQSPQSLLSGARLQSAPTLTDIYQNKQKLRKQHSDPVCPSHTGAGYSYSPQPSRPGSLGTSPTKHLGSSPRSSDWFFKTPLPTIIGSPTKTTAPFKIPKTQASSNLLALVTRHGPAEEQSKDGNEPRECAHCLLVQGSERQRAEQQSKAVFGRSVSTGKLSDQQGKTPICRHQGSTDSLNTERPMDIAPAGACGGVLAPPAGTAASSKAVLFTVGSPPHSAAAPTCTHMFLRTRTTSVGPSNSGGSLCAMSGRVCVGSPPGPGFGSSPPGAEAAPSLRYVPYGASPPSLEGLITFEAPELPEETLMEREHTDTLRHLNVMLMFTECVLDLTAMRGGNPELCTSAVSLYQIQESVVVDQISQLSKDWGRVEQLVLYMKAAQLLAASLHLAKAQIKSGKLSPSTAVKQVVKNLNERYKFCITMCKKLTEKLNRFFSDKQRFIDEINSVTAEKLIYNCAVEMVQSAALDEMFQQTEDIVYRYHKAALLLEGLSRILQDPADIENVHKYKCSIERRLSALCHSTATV

[36] = target: GABA-A receptor; anion channel (Rattus norvegicus) (UniProt O09028+P15431+P18506+P18508+P19969+P20236+P23574+P23576+P28471+P28473+P30191+P62813+P63079+P63138+Q91ZM7+Q9ES14); settings: Compound concentration 10.0 uM
[37] = target: T1, Muscarinic acetylcholine receptor M2 (Homo sapiens) (UniProt P08172); settings: Compound concentration 10.0 uM
T1 sequence (whole entry): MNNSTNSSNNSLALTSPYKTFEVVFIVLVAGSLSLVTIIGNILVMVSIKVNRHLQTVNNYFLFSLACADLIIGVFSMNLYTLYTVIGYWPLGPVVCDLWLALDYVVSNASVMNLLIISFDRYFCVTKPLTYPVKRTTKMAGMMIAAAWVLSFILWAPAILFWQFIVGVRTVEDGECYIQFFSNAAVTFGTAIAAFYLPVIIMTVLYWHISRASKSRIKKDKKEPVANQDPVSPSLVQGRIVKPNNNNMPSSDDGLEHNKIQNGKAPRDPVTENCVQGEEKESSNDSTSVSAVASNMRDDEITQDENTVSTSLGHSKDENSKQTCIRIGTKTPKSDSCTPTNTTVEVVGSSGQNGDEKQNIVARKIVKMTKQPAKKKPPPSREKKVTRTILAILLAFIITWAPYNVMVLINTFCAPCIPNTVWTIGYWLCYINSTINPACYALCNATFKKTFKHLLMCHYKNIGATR

CC(=O)N1CCC(c2ccc(C(=O)NC3=NCCN3)cc2C(F)(F)F)CC1 [BI 0054]
inactive: residual activity [1] 94% | residual activity [2] 87% | residual activity [3] 95% | residual activity [4] 100% | residual activity [5] 100% | residual activity [6] 98% | residual activity [7] 100% | residual activity [8] 100% | residual activity [9] 100% | residual activity [10] 100% | residual activity [11] 100% | residual activity [12] 100% | residual activity [13] 98% | residual activity [14] 100% | residual activity [15] 88% | residual activity [16] 100% | residual activity [17] 100% | residual activity [18] 91% | residual activity [19] 98% | residual activity [20] 100% | residual activity [21] 100% | residual activity [22] 97% | residual activity [23] 90% | residual activity [24] 100% | residual activity [25] 91% | residual activity [26] 100% | residual activity [27] 93% | residual activity [28] 100% | residual activity [29] 81% | residual activity [30] 100% | residual activity [31] 82% | residual activity [32] 87% | residual activity [33] 90% | residual activity [34] 100% | residual activity [35] 82% | inhibition [36] 17% | inhibition [37] -0.799%

CC(=O)N1CCC(c2ccc(C(=O)NC(=N)N)cc2C(F)(F)F)CC1 [BI 9627]
inactive: residual activity [1] 96% | residual activity [2] 100% | residual activity [3] 93% | residual activity [4] 100% | residual activity [5] 100% | residual activity [6] 100% | residual activity [7] 100% | residual activity [8] 100% | residual activity [9] 100% | residual activity [10] 100% | residual activity [11] 100% | residual activity [12] 99% | residual activity [13] 96% | residual activity [14] 96% | residual activity [15] 100% | residual activity [16] 93% | residual activity [17] 100% | residual activity [18] 100% | residual activity [19] 91% | residual activity [20] 100% | residual activity [21] 100% | residual activity [22] 100% | residual activity [23] 90% | residual activity [24] 100% | residual activity [25] 100% | residual activity [26] 100% | residual activity [27] 100% | residual activity [28] 100% | residual activity [29] 100% | residual activity [30] 100% | residual activity [31] 100% | residual activity [32] 86% | residual activity [33] 98% | residual activity [34] 100% | residual activity [35] 100% | inhibition [36] 14.6% | inhibition [37] 23.5%
